Source: ChEMBL document CHEMBL5625251, “Anti-influenza virus activities and mechanism of antrafenine analogs” (Eur J Med Chem, 2023)
Active and inactive are the calls of the source. The calls are words filed in the database; no cut-off is given here.

Experiments:
Influenza A virus [1] = test: Antiviral activity against Influenza A virus A/WSN/33(H1N1) infected in MDCK cells MOI 0.1 assessed as reduction in viral titre at 100 uM pre-infected with cells for 6 hrs followed by compound addition and measured after 6 to 8 hrs post infection by time of addition assay; type: functional, organism-based
Influenza A virus [2] = test: Antiviral activity against Influenza A virus A/WSN/33(H1N1) infected in MDCK cells assessed as inhibition of viral growth at 100 uM pre-infected for 1 hr followed by compound addition and measured 24 hrs post infection by plaque assay relative to control; type: functional; settings: time 23 hrs
[3] = Inhibition of Influenza A virus A/WSN/33(H1N1) Ribonucleoprotein transfected in Vero cells incubated for 48 hrs by spectrophotometer analysis; type: cell-based
Influenza A virus [4] = test: Antiviral activity against Influenza A virus A/WSN/33(H1N1) infected in MDCK cells MOI 0.1 assessed as reduction in viral titre at 100 uM pre-infected with cells for 6 hrs followed by compound addition and measured after 4 to 6 hrs post infection by time of addition assay; type: functional, organism-based
Influenza A virus [5] = test: Antiviral activity against Influenza A virus A/WSN/33(H1N1) infected in MDCK cells assessed as inhibition of viral growth pre-infected for 1 hr followed by compound addition and measured 24 hrs post infection by plaque assay; type: functional, organism-based
Influenza A virus [6] = test: Antiviral activity against Influenza A virus A/WSN/33(H1N1) infected in MDCK cells assessed as reduction in virus-induced cytopathic effect at 100 uM pre-infected with cells for 1 hrs followed by compound addition and measured after 2 days by MTT assay; type: functional, organism-based; settings: time 2.0 day
[7] = biological target: Polymerase acidic protein (Influenza A virus (A/Puerto Rico/8/1934(H1N1)), UniProt P03433); test: Binding affinity to C-terminal Influenza A virus Polymerase acidic protein assessed as dissociation constant by MST assay
Influenza A virus [8] = test: Antiviral activity against Influenza A virus A/PR/8/34 infected in MDCK cells MOI 0.01 assessed as inhibition of viral growth pre-infected for 1 hr followed by compound addition and measured 24 hrs post infection by plaque assay; type: functional, organism-based; settings: A/PR/8/34, MDCK
[9] = Cytotoxicity against MDCK cells assessed as reduction in cell viability incubated for 48 hrs by MTT assay; type: toxicity, cell-based, Canis lupus familiaris; settings: dog
Influenza A virus [10] = test: Antiviral activity against Influenza A virus A/WSN/33(H1N1) infected in MDCK cells MOI 0.1 assessed as reduction in viral titre at 100 uM pre-infected with cells for 6 hrs followed by compound addition and measured after 2 hrs post infection by time of addition assay; type: functional, organism-based
[11] = Selectivity index, ratio of CC50 for cytotoxicity against MDCK cells assessed as reduction in cell viability to IC50 for antiviral activity against Influenza A virus B/Florida/4/06 infected in MDCK cells MOI 0.01 assessed as inhibition of viral growth; type: toxicity, cell-based; settings: dog, read-out: Ratio CC50/IC50
Influenza A virus [12] = test: Antiviral activity against Influenza A virus A/WSN/33(H1N1) infected in MDCK cells MOI 0.1 assessed as reduction in viral titre at 100 uM pre-infected with cells for 6 hrs followed by compound addition and measured after 2 to 4 hrs post infection by time of addition assay; type: functional, organism-based
[13] = Selectivity index, ratio of CC50 for cytotoxicity against African green monkey Vero cells assessed as reduction in cell viability to IC50 for inhibition of Influenza A virus A/WSN/33(H1N1) Ribonucleoprotein transfected in Vero cells; type: toxicity, cell-based; settings: read-out: Ratio CC50/IC50
Influenza A virus [14] = test: Antiviral activity against Influenza A virus B/Florida/4/06 infected in MDCK cells MOI 0.01 assessed as inhibition of viral growth pre-infected for 1 hr followed by compound addition and measured 24 hrs post infection by plaque assay; type: functional, organism-based; settings: B/Florida/4/06, MDCK
[15] = Selectivity index, ratio of CC50 for cytotoxicity against MDCK cells assessed as reduction in cell viability to IC50 for antiviral activity against Influenza A virus A/HK/1/68 infected in MDCK cells MOI 0.01 assessed as inhibition of viral growth; type: toxicity, cell-based; settings: dog, read-out: Ratio CC50/IC50
[16] = Selectivity index, ratio of CC50 for cytotoxicity against MDCK cells assessed as reduction in cell viability to IC50 for antiviral activity against Influenza A virus A/PR/8/34 infected in MDCK cells MOI 0.01 assessed as inhibition of viral growth; type: toxicity, cell-based; settings: dog, read-out: Ratio CC50/IC50
[17] = Selectivity index, ratio of CC50 for cytotoxicity against MDCK cells assessed as reduction in cell viability to IC50 for antiviral activity against Influenza A virus A/WSN/33(H1N1) infected in MDCK cells assessed as inhibition of viral growth; type: toxicity, cell-based; settings: dog, read-out: Ratio CC50/IC50
[18] = Cytotoxicity against African green monkey Vero cells assessed as reduction in cell viability incubated for 48 hrs by MTT assay; type: toxicity, cell-based; settings: chlorocebus sabaeus
Influenza A virus [19] = test: Antiviral activity against Influenza A virus A/HK/1/68 infected in MDCK cells MOI 0.01 assessed as inhibition of viral growth pre-infected for 1 hr followed by compound addition and measured 24 hrs post infection by plaque assay; type: functional, organism-based; settings: A/HK/1/68, MDCK
Influenza A virus [20] = test: Antiviral activity against Influenza A virus A/WSN/33(H1N1) infected in chicken erythrocytes assessed as reduction in Haemagglutinin level preincubated for 30 mins followed by viral infection and measured after 40 mins; type: functional, organism-based; settings: Erythrocyte, time 70.0 min
Nucleoprotein = Nucleoprotein (Influenza A virus (strain A/Wilson-Smith/1933 H1N1), UniProt P15682); test: Binding affinity to Influenza A virus Nucleoprotein assessed as dissociation constant by MST assay
Nucleoprotein, sequence (P15682 whole entry): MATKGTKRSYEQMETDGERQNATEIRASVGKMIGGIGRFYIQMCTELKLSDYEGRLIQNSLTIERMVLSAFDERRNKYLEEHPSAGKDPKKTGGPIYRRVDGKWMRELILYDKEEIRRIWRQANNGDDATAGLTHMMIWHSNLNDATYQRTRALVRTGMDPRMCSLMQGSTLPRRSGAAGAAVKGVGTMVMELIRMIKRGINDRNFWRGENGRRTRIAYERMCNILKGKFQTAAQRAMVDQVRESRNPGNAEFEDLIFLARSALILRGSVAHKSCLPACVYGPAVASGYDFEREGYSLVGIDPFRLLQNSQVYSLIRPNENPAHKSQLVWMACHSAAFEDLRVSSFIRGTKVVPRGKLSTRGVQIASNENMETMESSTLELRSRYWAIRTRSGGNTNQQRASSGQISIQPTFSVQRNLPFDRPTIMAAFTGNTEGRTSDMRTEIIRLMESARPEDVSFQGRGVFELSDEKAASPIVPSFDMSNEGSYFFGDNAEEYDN

Influenza A virus [21] = test: Antiviral activity against Influenza A virus A/WSN/33(H1N1) infected in chicken erythrocytes assessed as reduction in neuraminidase level incubated for 2 hrs; type: functional, organism-based; settings: Erythrocyte
Influenza A virus [22] = test: Antiviral activity against Influenza A virus A/WSN/33(H1N1) infected in MDCK cells MOI 0.1 assessed as reduction in viral titre at 12.5 uM pre-infected with cells for 6 hrs followed by compound addition and measured after 4 to 6 hrs post infection by time of addition assay; type: functional; set-up: scale not given: the % may be the effect or the level left
Influenza A virus [23] = test: Antiviral activity against Influenza A virus A/WSN/33(H1N1) infected in MDCK cells MOI 0.1 assessed as reduction in viral titre at 12.5 uM pre-infected with cells for 6 hrs followed by compound addition and measured after 6 to 8 hrs post infection by time of addition assay; type: functional, organism-based
Influenza A virus [24] = test: Antiviral activity against Influenza A virus A/WSN/33(H1N1) infected in MDCK cells MOI 0.1 assessed as inhibition of viral growth at 12.5 uM pre-infected with cells for 6 hrs followed by compound addition and measured after 2 to 4 hrs post infection by time of addition assay; type: functional, organism-based
Influenza A virus [25] = test: Antiviral activity against Influenza A virus A/WSN/33(H1N1) infected in MDCK cells MOI 0.1 assessed as reduction in viral titre at 12.5 uM pre-infected with cells for 6 hrs followed by compound addition and measured after 2 hrs post infection by time of addition assay; type: functional, organism-based
Influenza A virus [26] = test: Antiviral activity against Influenza A virus A/WSN/33(H1N1) infected in MDCK cells MOI 0.1 assessed as reduction in viral titre at 12 uM pre-infected with cells for 6 hrs followed by compound addition and measured after 2 to 4 hrs post infection by time of addition assay; type: functional, organism-based
Influenza A virus [27] = test: Antiviral activity against Influenza A virus A/WSN/33(H1N1) infected in MDCK cells assessed as reduction in virus-induced cytopathic effect at 12.5 uM pre-infected with cells for 1 hrs followed by compound addition and measured after 2 days by MTT assay; type: functional, organism-based; settings: time 2.0 day
Influenza A virus [28] = test: Antiviral activity against Influenza A virus A/WSN/33(H1N1) infected in MDCK cells assessed as reduction in virus-induced cytopathic effect at 25 uM pre-infected with cells for 1 hrs followed by compound addition and measured after 2 days by MTT assay; type: functional, organism-based; settings: time 2.0 day

Row | Compound | Activity (Influenza A virus [1]) | inhibition at 100 µM (Influenza A virus [2]) [%] | IC50 [3] [µM] | Activity (Influenza A virus [4]) | IC50 (Influenza A virus [5]) [µM] | Kd [7] [µM] | IC50 (Influenza A virus [8]) [µM] | CC50 at 48 h [9] [µM] | Activity (Influenza A virus [10]) | selectivity ratio [11] | Activity (Influenza A virus [12]) | selectivity ratio [13] | IC50 (Influenza A virus [14]) [µM] | selectivity ratio [15] | selectivity ratio [16] | selectivity ratio [17] | CC50 at 48 h [18] [µM] | IC50 (Influenza A virus [19]) [µM] | Activity (Influenza A virus [20]) | Activity (Influenza A virus [21]) | further results
1 | O=C(O)c1ccccc1Nc1ccnc2cc(C(F)(F)F)ccc12 | inactive | 97.3 | 19.2 | Active | 6.73 | 8.36 | 11.3 | > 100 | Active | > 4 | Active | > 10 | 22.3 | > 4 | > 9 | > 15 | > 200 | 27.8 | inactive | inactive | Activity (Influenza A virus [6]): Active; Kd (Nucleoprotein): 20.4 µM
2 | O=C(NCCCN1CCOCC1)c1ccccc1Nc1ccnc2ccc(Cl)cc12 |  |  | 11.8 |  | 3.21 | 28.8 | 3.94 | > 50 |  | > 15 |  | > 3 | 3.32 | > 15 | > 13 | > 16 | 31.4 | 3.31 | inactive | inactive | Activity (Influenza A virus [22]): 5%; Activity (Influenza A virus [23]): inactive; inhibition (Influenza A virus [24]): Active; Activity (Influenza A virus [25]): Active; Activity (Influenza A virus [26]): Active; Kd (Nucleoprotein): 33 µM; Activity (Influenza A virus [27]): Active
3 | O=C(Nc1cccc([N+](=O)[O-])c1)c1ccccc1Nc1ccnc2cc(C(F)(F)F)ccc12 | inactive | 99.8 | 14 | Active | 5.53 |  | 5.5 | > 100 | Active | > 8 | Active | > 7 | 12 | > 12 | > 18 | > 18 | > 100 | 8.5 | inactive | inactive | Activity (Influenza A virus [28]): Active
